Patent US20170313974A1, “Modulation of Tissue Fatty Acid Composition of a Host by Human Gut Bacteria” (University College Cork, National University of Ireland, priority 2007, published 2017)

What was measured:
Format in all cases: in vivo
[1] = tested on: Myeloperoxidase (MPO) activity in colonic homogenates; experiment: Colonic mucosal myeloperoxidase (MPO) activity in SCID mice with colitis; conditions: 10 weeks, mean ± SD, n = 8
Procedure: (§1) Materials and Methods Severe Combined Immuno Deficient (SCID) mice were used in this study, which had been induced with colitis through adoptive transfer of splenic CD4^+ CD45RB^high T cells from BALB/c mice. […] Ten weeks after colitis induction, cytokine production by splenocytes was measured in vitro by ELISA, myeloperoxidase (MPO) activity was determined in colonic homogenates and fatty acid composition in liver, adipose tissue, cecum and colon was determined by gas liquid chromatography (GLC). Similar studies have also been conducted in pigs (data not shown here) and similar results obtained.
(§2) SCID mice were purchased from Harlan ltd. (Briester, Oxon, UK) at 6 weeks of age and fed a normal diet for 1 week to stabilize all metabolic conditions. Each cage contained one mouse. Mice were exposed to a 12-h light:dark cycle and maintained at a constant temperature of 25° C. One week after arrival, mice were divided into five groups for different dietary treatments (Table I).
SCID mice were induced with colitis through adoptive transfer of the CD4^+ CD45RB^high subpopulation of CD4+ T cells from normal BALB/c mice (Mackay et al. 1998). […]
Myeloperoxidase activity was measured according to the method by Krawisz et al. (24). […] The absorbance (OD) was measured spectrophotometrically at 450 nm at 1 min intervals for 15 min. […] Results are expressed as U/mg protein.

splenocytes = experiment: Cytokine production by stimulated splenocytes of fed SCID mice with colitis
Procedure: as §1
Cytokine production in response to defined stimuli, in vitro, was measured using enzyme-linked immunosorbent assay (ELISA). Splenocyte isolation was performed using an erythrocyte lysing kit (R&D Systems). The spleens of all mice were removed at the time of sacrifice, blotted on filter paper and weighed. Each spleen was immediately placed in Hanks' buffer containing 10% fetal calf serum. The spleen was teased apart and sieved through a cell strainer into a 50 ml centrifuge tube. Cells were centrifuged for 10 minutes at 200 g. The cells were resuspended in 2 ml M-lyse buffer, which lyses red blood cells, and incubated for 8 minutes at room temperature. Lysis was deactivated using wash buffer and the cell suspension was centrifuged for 10 minutes at 200 g. Cells were resuspended in DMEM (10% fetal calf serum, 1% Pen/Strep, Sigma) and diluted to 1×10^6 cells/ml for in vitro culturing. The isolated lymphocytes were cocultured with the proinflammatory bacterium Salmonella typhimurium UK1 (1×10^6 cells/ml) and with antiCD3-antiCD28 monoclonal antibodies for 48 hours at 37° C. Cell supernatants were isolated and stored at −80° C. Cytokine analysis was performed on the supernatants using a BD™ Cytometric Bead Array (CBA) Mouse Inflammation Kit (BD Biosciences, US).

SCID mice = experiment: Tissue fatty acid composition, SCID mouse colitis feeding study (10 weeks)
Procedure: as §1, §2
For linoleic acid and c9t11 CLA treatment, a powdered diet blended with the drug was administered for 10 weeks to yield a dose of drug at approximately 90 mg/day/mouse (this is based on preliminary experiments by Bassaganya-Riera et al. (22) that established an optimal dose of fatty acids of 1 g/100 g of diet).
After the adoptive transfer, mice were weighed three times a week and examined for clinical signs of disease associated with colitis (ie. rectal bleeding, diarrhoea and rectal prolapse). After 10 weeks on experimental diets, the mice were sacrificed by cervical dislocation. Livers, adipose tissue, spleens, colons and cecums were removed from the carcasses, blotted dry on filter paper, weighed and frozen in liquid nitrogen. All samples were stored at −80° C. until processed. The colon was divided into different sections for MPO activity and fatty acid composition.
(§3) Lipids were extracted with Chloroform:Methanol 2:1 v/v according to Folch et al. (25). Briefly, tissue or faecal samples, ˜1 g liver, 300 mg small intestine, 200 mg adipose tissue, 250 mg colon, 800 mg cecum or 100 mg feaces were homogenised in over a 25 fold excess of CHCl3:CH3OH (2:1 v/v) and washed with 0.88% KCl solution. Excess solvent was dried down under a gentle stream of N2 at 40° C. and lipids were stored at −20° C. in 1 ml chloroform. Fatty acid methyl esters (FAME) were prepared using first 10 ml 0.5N NaOH in methanol for 10 min at 90° C. followed by 10 ml 14% BF3 in methanol for 10 min at 90° C. (26). FAME was recovered with hexane. Prior to GC analysis samples were dried over 0.5 g of anhydrous sodium sulphate for an hour and stored at −20° C. FAME were separated by gas liquid chromatography (GLC Varian 3400, Varian, Walnut Creek, Calif. USA fitted with a flame ionization detector) using a Chrompack CP Sil 88 column (Chrompack, Middleton, The Netherlands, 100 m×0.25 mm i.d., 0.20 μm film thickness) and He as a carrier gas. The column oven was programmed to be held initially at 80° C. for 8 minutes then increased 8.5° C./min to a final column temperature of 200° C. The injection volume used was 0.6 μl with automatic sample injection with a splitless on SPI on-column temperature programmable injector. Data was recorded and analysed on a Minichrom PC system (VG Data System, Manchester, U.K.). Tri-heptadecanoate (Sigma) was used as an internal standard, and peaks were identified with reference to retention times of fatty acids in a standard mixture. All fatty acid results are shown as mean±SD (n=8) g/100 g FAME.

BALB/c mice = experiment: Tissue and faecal fatty acid composition, BALB/c LA feeding trial (8 weeks)
Procedure: Male BALB/c mice were purchased from Harlan Ltd. (Briester, Oxon, UK). One week after arrival, these mice were divided into two groups (n=9) for different dietary treatments. […] Group B received 1% LA in their diet. For LA treatment, a powdered diet blended with the drug was administered for 8 weeks to yield a dose of drug at approximately 90 mg/day/mouse (this is based on preliminary experiments by Bassaganya-Riera et al. (1) that established an optimal dose of fatty acids of 1 g/100 g).
After 8 weeks on experimental diets, the mice were sacrificed by cervical dislocation. Livers, hearts, colons, small intestines and cecums were removed from the carcasses, blotted dry on filter paper, weighed and frozen in liquid nitrogen. All samples were stored at −80° C. until processed.
as §3

[2] = stimulation with S. typhimurium UK1
[3] = stimulation with antiCD3-antiCD28

CCCCC/C=C\C/C=C\CCCCCCCC(=O)O [LA, linoleic acid]
MPO colon [1]: 1.16 ± 0.23 U/mg protein
proinflammatory cytokines (splenocytes; compared to control): no reduction
c9, t11 CLA in cecum digesta (SCID mice; cecum digesta, mean ± SD, n = 8): 0.08 ± 0.02^ g/100 g FAME
c9, t11 CLA in faeces (SCID mice; faeces): 0.09 g/100 g FAME
c9, t11 CLA in liver (SCID mice; liver, mean ± SD, n = 8): 0.01 ± 0.01^2 g/100 g FAME
LA in faeces (BALB/c mice; faeces after 8 weeks): 27.4±7.16
c9, t11 CLA in faeces (BALB/c mice; faeces harvested after 8 weeks): 0.35±0.25 g/100 g FAME
c9, t11 CLA in large intestine (BALB/c mice; large intestine, 8 weeks): 0.07±0.02 g/100 g FAME
c9, t11 CLA in liver (BALB/c mice; liver, 8 weeks): 0.05±0.03 g/100 g FAME
c9, t11 CLA in small intestine (BALB/c mice; small intestine, 8 weeks): 0.03±0.01

CCCCCC/C=C/C=C\CCCCCCCC(=O)O [c9, t11 CLA, cis-9, trans-11 CLA]
IFN-γ levels (splenocytes; [2]): reduced
IL-6 levels (splenocytes; [2]): reduced
TNF-α levels (splenocytes; [2]): 1428.7
IFN-γ levels (splenocytes; [3]): 1334.2
IL-6 levels (splenocytes; [3]): 213.7
TNF-α levels (splenocytes; [3]): 458.9
16:1n-7 (palmitoleic acid) in all tissues (SCID mice; all tissues): higher
20:4n-6 in cecum digests (SCID mice; cecum digests): significant decrease
16:0 (palmitic acid) in colon (SCID mice; colon): significantly higher
arachidonic acid, 20:4n-6 (AA) in liver (SCID mice; compared to other groups): decrease
c9, t11 CLA in all tissues (SCID mice; compared to other groups): much higher
